Laboratory results taken from US8053585B2, “Protecting group for carboxylic acids that can be photolyzed by visible light” (Cornell Research Foundation, Inc., priority 2006, dated 2011).
Values joined by “and” are separate entries in the source; they are usually repeats but may differ in a detail not shown here. Equal entries are not always repeated. “Also recorded” adds a separate entry of the source.

How the values were obtained:
Format in all cases: physicochemical
[1] = UV-vis absorption spectrum of the caged compound; settings: for ε390: 390 nm; for ε400: 400 nm
Procedure: The caged compound (1 mM) was rapidly dissolved in the buffer solution (150 mM NaCl, 1 mM CaCl2, 10 mM HEPES; the pH was adjusted to 7.4 using 5 N NaOH), and the solution was immediately transferred to a cuvette (4 mL volume, 10 mm path length) and placed in an absorption spectrometer (OLIS-14C) at 22° C. Whole spectra were recorded between 1 and 240 min after the compound was dissolved (FIGS. 1 and 7).

[2] = Solubility in water or the buffers used; settings: physiological conditions
[3] = Hydrolysis in the dark (thermal stability, UV-vis spectra); settings: for hydrolysis at room temperature: HEK buffer pH 7.4, protected from light, 2 h; for hydrolysis on storage: buffer pH 7.4, −20° C. in the dark; for stability in water: pH 7.4 and 22° C. / physiological conditions, in the dark
[4] = Laser-flash photolysis (transient spectral measurements); settings: for time to release the amino acid on photolysis: aqueous solution, visible region; for time constant of single-exponential absorbance decay at 460 nm: light pulse ≧400 nm, 0.8 mM, HEK buffer pH 7.4, 22° C.
Procedure: […] The energy of the beam was measured using a Molectron (Portland, Oreg.) joule meter. Light of≧400 nm produced by fluorescence from 4.9×10^−4 M Exalite 404 dye (Exciton Inc., Dayton, Ohio) was used to initiate photolysis. The decay of the transient intermediate absorbance was recorded by digitizing the photomultiplier output at rates up to 2 MHz. The transient absorption changes were monitored at a wavelength where there was significant change in the absorption on irradiation of the caged compound (ca. 460 nm). All photolysis rates and quantum yields were measured at room temperature. Nonlinear least-squares fitting of single exponential decays was used to determine the photolysis rate constants.

[5] = Quantum yield of photolysis; settings: ≧400 nm, 250 μM, extracellular buffer pH 7.4, 22° C.
Procedure: The quantum yield for the caged compound was determined by actinometric methods (Murov, in Dekker, ed., Handbook of Photochemistry, New York, pp. 298-305 (1993), which is hereby incorporated by reference in its entirety). The Oriel (Oriel Instruments, Stratford, Conn.) lamp used for photolysis was equipped with a filter (Schott glass filter GG400; Schott North America, Inc., Elmsford, N.Y.) to eliminate light at wavelengths below 400 nm.
The quantum yield was also determined using the method published by Milburn et al., “Synthesis, Photochemistry, and Biological Activity of a Caged Photolabile Acetylcholine Receptor Ligand,” Biochemistry 28:49-55 (1989), which is hereby incorporated by reference in its entirety. For measuring the quantum yield of DECM-caged glutamate photolysis, 3 mL sample of 4 (Scheme 1) was photolyzed with repetitive light pulses at≧400 nm, and the concentration of 2 (Scheme 1) was determined spectrophotometrically. For measuring the quantum yield of DECM-caged glycine photolysis, 3 mL sample of 4 (Scheme 2) was photolyzed with repetitive light pulses at≧400 nm, and the concentration of 2 (Scheme 2) was determined spectrophotometrically. […]

| hydrolysis on storage ([3]; 24 h) | SMILES | major absorption band maximum [1] [nm] | ε390 [1] [M⁻¹ cm⁻¹] | ε400 [1] [M⁻¹ cm⁻¹] | solubility in water [2] | hydrolysis at room temperature [3] | stability in water [3] | time to release the amino acid on photolysis [4] [μs] | time constant of single-exponential absorbance decay at 460 nm [4] [μs] | quantum yield of photolysis [5] | hydrolysis on storage ([3]; 20 h) |
| --- | --- | --- | --- | --- | --- | --- | --- | --- | --- | --- | --- |
| No measurable hydrolysis | CCN(CC)c1ccc2c(COC(=O)CCC(N)C(=O)O)cc(=O)oc2c1 (centres unmarked) [DECM-caged glutamate, (7-N,N-Diethylaminocoumarin-4-yl)-methyl-glutamate-trifluoroacetate] | 390 | 13651 | 12232 | sufficiently soluble in water or the buffers used; also recorded: water soluble | very little hydrolysis | stable in the dark | ≤ 3 | 3 | 0.11±0.008 and 0.11±0.08 |  |
|  | CCN(CC)c1ccc2c(COC(=O)CN)cc(=O)oc2c1 [DECM-caged glycine, (7-N,N-Diethylaminocoumarin-4-yl)-methyl-glycine-trifluoroacetate] | 390 | 13869 | 12427 | water soluble | very little hydrolysis | stable | ≤ 2.6 | 2.6 | 0.12±0.009 | No measurable hydrolysis |
